One block for each molecule: values may come before it. Where a SMILES comes first, the peptide text is derived from it. The star is where a group is joined. Cbz = O=C(OCc1ccccc1)*
Legend:
[1] = tested on: HUT78, MYLA (CTCL), A2058, A375 (melanoma), HCT116 and HCT15 (CRC); assay: Immunoblot of autophagy markers and HR23B in tumour cell lines treated with HDAC inhibitors; format: cell-based; conditions: for autophagy markers (LC3 cleavage, LAMP1, cathepsin D): immunoblot after 18 hr or 24 hr treatment
U2OS cells [2] = assay: Global ubiquitination (His6-ubiquitin, Ni2+ pull-down, anti-His immunoblot); format: cell-based; conditions: for global ubiquitination, SAHA and MG132 combined: SAHA 5 μM 20 hr and MG132 20 μM 4 hr
Experimental: Cell lysates and Ni^2+ pull-down eluates were analyzed by immunoblotting with anti-His as described. The input HR23B is shown underneath, together with actin levels.
Ni^2+ pull-down eluates were analyzed by immunoblotting with anti-His. The input HR23B level is shown underneath, together with actin levels.
Transfected cells in a 10 cm dish were washed twice with ice-cold PBS and harvested into 1 ml of 8M urea, 0.1 M Na2HPO4/NaH2PO4, 0.01M Tris-HCl, and pH8.0. Lysates were sheared by taking through 23 gauge needle to reduce viscosity. Protein concentration was measured with Bradford (Bio-Rad) and normalised. About 100 μl of lysate was mixed with 4×SDS loading buffer for input. Then 900 μl of lysate was incubated with 70 μl of a 50% slurry of nickel (Ni^2+-NTA)-agarose beads (Qiagen), 5 mM imidazole and 10 mM β-mercaptoethanol overnight at 4° C. The beads were collected by 1 min centrifugation at 8,000 rpm and washed with 750 μl of the following buffers with 5 min mixing at room temperature for each washing step: twice with 8M urea, 0.1M Na2HPO4/NaH2PO4, 0.01 M Tris-HCl, pH 8.0, 10 mM β-mercaptoethanol and 0.1% Triton X-100; three times with 8M urea, 0.1M Na2HPO4/NaH2PO4, 0.01M Tris-HCl, pH 6.3, 10 mM β-mercaptoethanol and 0.1% Triton X-100. The bound proteins were then eluted with 100 μl of elution buffer (200 mM imidazole, 5% SDS, 150 mM Tris-HCl pH6.8, 30% glycerol, 720 mM β-mercaptoethanol, 0.005% bromophenol blue) for 30 min incubation followed by 10 min spin at 13,000 rpm. Samples were heated to 95° C. for 5 min, cooled, and a typical volume of 30 μl loaded on each lane for immunoblot analysis.

U2OS cells [3] = assay: Immunoblot for apoptosis (PARP) and autophagy (LC3 cleavage); format: cell-based; conditions: co-treatment SAHA and 3-methyladenine (10 mM) for 18 hr
[4] = tested on: Flag-HDAC6 stable inducible cell line; assay: Immunoblot of endogenous HR23B and cleaved caspase 3 upon induction of Flag-HDAC6; conditions: for HDAC6-dependent down-regulation of HR23B: Dox-induced Flag-HDAC6, 3MA 5 and 10 mM, 17-AAG 0.1 or 1 μM, tubastatin 10 μM, bortezomib 48 hr
U2OS cells [5] = assay: Visualisation of autophagosomes by anti-LC3 immunostaining; format: cell-based
Experimental: Counter-stain with DAPI was superimposed for each image.
Cells seeded onto coverslips were washed in PBS and fixed in 3.7% formaldehyde for 15 min. Cells were permeabilised in PBS containing 0.5% Triton X-100 for 5 min and then blocked in 5% FCS/PBS for 30 min at room temperature before incubation with primary antibody as indicted. Coverslips were washed in PBS containing 0.05% Tween-20 and incubated with corresponding secondary antibodies for 30 min at room temperature. Alexa Fluro 488 (green fluorescence) or Alexa Fluor 594 (red fluorescence) (Molecular Probes). Finally coverslips were washed extensively in PBS containing 0.05% Tween-20 and mounted onto microscope slides using Vectashield containing DAPI (Vector Laboratories).

[6] = tested on: patients after potentially-curative surgery for stage II/III colorectal cancer; conditions: 1167 rofecoxib patients; median follow-up 4.84 years; cited from earlier work
[7] = biological target: T1, Flag-HDAC6 (wild-type, full length, ectopic) (human, UniProt Q9UBN7 1-1215); assay: anti-Flag co-immunoprecipitation of Flag-HDAC6 from co-transfected U2OS cells, anti-Myc immunoblot
T1 construct: Expressed by transfection or by doxycycline induction in U2OS cells; also called pcDNA-Flag-HDAC6; WT HDAC6; not shown: Flag tag
T1 sequence: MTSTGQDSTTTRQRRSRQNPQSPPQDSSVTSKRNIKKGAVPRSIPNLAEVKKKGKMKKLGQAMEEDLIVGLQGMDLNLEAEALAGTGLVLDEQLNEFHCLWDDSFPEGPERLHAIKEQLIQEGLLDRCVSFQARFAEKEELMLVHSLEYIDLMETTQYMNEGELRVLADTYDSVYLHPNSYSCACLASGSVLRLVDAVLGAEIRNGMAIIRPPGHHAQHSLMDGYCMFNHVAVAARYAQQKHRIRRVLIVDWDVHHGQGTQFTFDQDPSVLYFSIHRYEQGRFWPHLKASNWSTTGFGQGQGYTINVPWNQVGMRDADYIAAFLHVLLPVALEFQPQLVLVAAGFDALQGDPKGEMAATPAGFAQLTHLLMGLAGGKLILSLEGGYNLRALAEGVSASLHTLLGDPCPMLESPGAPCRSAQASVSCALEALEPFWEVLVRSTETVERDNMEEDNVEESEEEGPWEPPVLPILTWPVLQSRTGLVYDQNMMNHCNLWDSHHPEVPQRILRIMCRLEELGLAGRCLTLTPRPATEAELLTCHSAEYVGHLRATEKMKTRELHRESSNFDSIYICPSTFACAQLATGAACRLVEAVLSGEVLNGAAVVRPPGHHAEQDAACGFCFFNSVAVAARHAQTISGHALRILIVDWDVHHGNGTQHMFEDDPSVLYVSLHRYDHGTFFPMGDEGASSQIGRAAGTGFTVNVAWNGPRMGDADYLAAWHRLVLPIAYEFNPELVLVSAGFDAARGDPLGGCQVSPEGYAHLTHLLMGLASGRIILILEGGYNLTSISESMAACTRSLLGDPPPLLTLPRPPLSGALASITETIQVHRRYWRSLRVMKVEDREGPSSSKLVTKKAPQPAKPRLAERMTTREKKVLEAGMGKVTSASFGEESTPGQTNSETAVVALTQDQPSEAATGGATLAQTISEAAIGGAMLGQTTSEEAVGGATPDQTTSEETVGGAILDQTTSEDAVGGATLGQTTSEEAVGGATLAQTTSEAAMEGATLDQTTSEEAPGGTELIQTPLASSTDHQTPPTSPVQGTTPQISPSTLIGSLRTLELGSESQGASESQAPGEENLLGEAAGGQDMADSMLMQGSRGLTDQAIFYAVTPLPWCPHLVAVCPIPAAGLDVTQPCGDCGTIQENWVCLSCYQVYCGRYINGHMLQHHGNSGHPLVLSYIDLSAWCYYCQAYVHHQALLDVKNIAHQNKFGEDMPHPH

Molecule: CCCC(CCC)C(=O)O [valproic acid, 2-Propylpentanoic acid]
autophagy markers (LC3 cleavage, LAMP1, cathepsin D) [1]: resulted in similar effects

Molecule: CC(C)C[C@@H](C=O)NC(=O)[C@H](CC(C)C)NC(=O)[C@H](CC(C)C)NC(=O)OCc1ccccc1 [MG132] (Cbz-Leu-Leu-Leu-aldehyde)
global ubiquitination, SAHA and MG132 combined (U2OS cells [2]): even greater level of ubiquitination
global ubiquitination, single agent (U2OS cells [2]; SAHA 5 μM 20 hr or MG132 20 μM 4 hr, vs untreated): increase in ubiquitination

Molecule: Cn1cnc(N)c2ncnc1-2 [3-MA, 3-methyladenine]
level of apoptosis (U2OS cells [3]): an enhanced level of apoptosis was apparent
HDAC6-dependent down-regulation of HR23B [4]: failed to affect down-regulation of HR23B by HDAC6

Molecule: tubastatin
HDAC6-dependent down-regulation of HR23B [4]: did not impact on the HDAC6-dependent down-regulation of HR23B
increase in HR23B upon 17-AAG treatment ([4]; tubastatin 10 μM together with 17-AAG): did prevent the increase in HR23B upon 17-AAG treatment

Molecule: C=CCNC1=C2C[C@@H](C)C[C@H](OC)[C@H](O)[C@@H](C)/C=C(\C)[C@H](OC(N)=O)[C@@H](OC)/C=C\C=C(/C)C(=O)NC(=CC1=O)C2=O [17-AAG]
HDAC6-dependent down-regulation of HR23B [4]: HDAC6 failed to down-regulate HR23B

Molecule: O=C(CCCCCCC(=O)Nc1ccccc1)NO [SAHA, N-hydroxy-N′-phenyloctanediamide]
global ubiquitination, SAHA and MG132 combined (U2OS cells [2]): even greater level of ubiquitination
level of apoptosis (U2OS cells [3]): an enhanced level of apoptosis was apparent
level of HR23B ([1]; at increasing SAHA concentration, coinciding with autophagocytic markers): decreased levels of HR23B
autophagy markers (LC3 cleavage, LAMP1, cathepsin D) [1]: caused LC3 cleavage as well as the appearance of LAMP1 and cathepsin D
autophagosomes when ectopic HR23B was expressed (U2OS cells [5]; SAHA 10 μM for 18 hr, + vs − doxycycline): less evident
visual appearance of autophagosomes (U2OS cells [5]; SAHA 10 and 20 μM): visual appearance of autophagosomes in cells

Molecule: CS(=O)(=O)c1ccc(C2=C(c3ccccc3)C(=O)OC2)cc1 [rofecoxib]
deaths [6]: 241
recurrences [6]: 297

binding result [7]: no binding
B1: HR23B ΔUbL, myc/his tagged (other)
chain: AVSTPAPATTQQSAPASTTAVTSSTTTTVAQAPTPVPALAPTSTPASITPASATASSEPAPASAAKQEKPAEKPAETPVATSPTATDSTSGDSSRSNLFEDATSALVTGQSYENMVTEIMSMGYEREQVIAALRASFNNPDRAVEYLLMGIPGDRESQAVVDPPQAASTGAPQSSAVAAAAATTTATTTTTSSGGHPLEFLRNQPQFQQMRQIIQQNPSLLPALLQQIGRENPQLLQQISQHQEHFIQMLNEPVQEAGGQGGGGGGGSGGIAEAGSGHMNYIQVTPQEKEAIERLKALGFPEGLVIQAYFACEKNENLAANFLLQQNFDED
notes: not shown: myc/his tag from the pcDNA3.1 (+)/Myc-His vector

From patent US20160069887A1, “BIOMARKERS FOR PROGNOSIS” (ISIS INNOVATION LIMITED, priority 2013, published 2016)
